Experimental data reported in ChEMBL document CHEMBL2010748, “Structure-Activity Relationship Studies of HIV-1 Integrase Oligonucleotide Inhibitors” (ACS Med Chem Lett, 2011).

Each compound was assayed against Human immunodeficiency virus type 1 integrase (Human immunodeficiency virus 1, UniProt Q7ZJM1) (assay: Inhibition of Human immunodeficiency virus 1 integrase 3'-processing activity expressed in Escherichia coli using 21-mer DNA and Mg2+ after 2 hrs by polyacrylamide gel electrophoresis).
Human immunodeficiency virus type 1 integrase, sequence (Q7ZJM1 whole entry): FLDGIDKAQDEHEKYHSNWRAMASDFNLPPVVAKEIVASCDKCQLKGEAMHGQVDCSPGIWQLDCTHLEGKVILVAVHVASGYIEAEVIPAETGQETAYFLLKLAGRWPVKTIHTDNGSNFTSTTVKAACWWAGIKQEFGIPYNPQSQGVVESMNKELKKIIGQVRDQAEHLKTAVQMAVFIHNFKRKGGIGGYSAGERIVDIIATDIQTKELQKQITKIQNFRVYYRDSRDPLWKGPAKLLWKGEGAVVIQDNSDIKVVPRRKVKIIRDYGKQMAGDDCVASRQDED

SMILES	IC50 [nM]
Cc1cn([C@H]2C[C@H](OP(=O)(O)OC[C@H]3O[C@@H](n4cc(C)c(=O)[nH]c4=O)C[C@@H]3OP(=O)(O)OC[C@H]3O[C@@H](n4cc(C)c(=O)[nH]c4=O)C[C@@H]3OP(=O)(O)OC[C@H]3O[C@@H](n4cnc5c(=O)[nH]c(N)nc54)C[C@@H]3OP(=O)(O)OC[C@H]3O[C@@H](n4cc(C)c(=O)[nH]c4=O)C[C@@H]3OP(=O)(O)OC[C@H]3O[C@@H](n4cnc5c(=O)[nH]c(N)nc54)C[C@@H]3OP(=O)(O)OC[C@H]3O[C@@H](n4cc(C)c(=O)[nH]c4=O)C[C@@H]3O)[C@@H](COP(=O)(O)O[C@H]3C[C@H](n4cc(C)c(=O)[nH]c4=O)O[C@@H]3COP(=O)(O)O[C@H]3C[C@H](n4cc(C)c(=O)[nH]c4=O)O[C@@H]3COP(=O)(O)O[C@H]3C[C@H](n4cnc5c(=O)[nH]c(N)nc54)O[C@@H]3COP(=O)(O)O[C@H]3C[C@H](n4cnc5c(=O)[nH]c(N)nc54)O[C@@H]3COP(=O)(O)O[C@@H]3C[C@@H](CO)N(C(=O)CCCCCNC(=O)c4ccc(C(=O)O)c(-c5c6ccc(=O)cc-6oc6cc(O)ccc56)c4)C3)O2)c(=O)[nH]c1=O	320
Cc1cn([C@H]2C[C@H](OP(=O)(O)OC[C@H]3O[C@@H](n4cc(C)c(=O)[nH]c4=O)C[C@@H]3OP(=O)(O)OC[C@H]3O[C@@H](n4cc(C)c(=O)[nH]c4=O)C[C@@H]3OP(=O)(O)OC[C@H]3O[C@@H](n4cnc5c(=O)[nH]c(N)nc54)C[C@@H]3OP(=O)(O)OC[C@H]3O[C@@H](n4cc(C)c(=O)[nH]c4=O)C[C@@H]3OP(=O)(O)OC[C@H]3O[C@@H](n4cnc5c(=O)[nH]c(N)nc54)C[C@@H]3OP(=O)(O)OC[C@H]3O[C@@H](n4cc(C)c(=O)[nH]c4=O)C[C@@H]3O)[C@@H](COP(=O)(O)O[C@H]3C[C@H](n4cc(C)c(=O)[nH]c4=O)O[C@@H]3COP(=O)(O)O[C@H]3C[C@H](n4cc(C)c(=O)[nH]c4=O)O[C@@H]3COP(=O)(O)O[C@H]3C[C@H](n4cnc5c(=O)[nH]c(N)nc54)O[C@@H]3COP(=O)(O)O[C@H]3C[C@H](n4cnc5c(=O)[nH]c(N)nc54)O[C@@H]3COP(=O)(O)OCCCCCCNC(=O)c3ccc(C(=O)O)c(-c4c5ccc(=O)cc-5oc5cc(O)ccc45)c3)O2)c(=O)[nH]c1=O	310
Cc1cn([C@H]2C[C@H](OP(=O)(O)OC[C@H]3O[C@@H](n4cc(C)c(=O)[nH]c4=O)C[C@@H]3OP(=O)(O)OC[C@H]3O[C@@H](n4cc(C)c(=O)[nH]c4=O)C[C@@H]3OP(=O)(O)OC[C@H]3O[C@@H](n4cnc5c(=O)[nH]c(N)nc54)C[C@@H]3OP(=O)(O)OC[C@H]3O[C@@H](n4cc(C)c(=O)[nH]c4=O)C[C@@H]3OP(=O)(O)OC[C@H]3O[C@@H](n4cnc5c(=O)[nH]c(N)nc54)C[C@@H]3OP(=O)(O)OC[C@H]3O[C@@H](n4cc(C)c(=O)[nH]c4=O)C[C@@H]3OP(=O)(O)OCCCCCCNC(=S)Nc3ccc(-c4c5ccc(=O)cc-5oc5cc(O)ccc45)c(C(=O)O)c3)[C@@H](COP(=O)(O)O[C@H]3C[C@H](n4cc(C)c(=O)[nH]c4=O)O[C@@H]3COP(=O)(O)O[C@H]3C[C@H](n4cc(C)c(=O)[nH]c4=O)O[C@@H]3COP(=O)(O)O[C@H]3C[C@H](n4cnc5c(=O)[nH]c(N)nc54)O[C@@H]3COP(=O)(O)O[C@H]3C[C@H](n4cnc5c(=O)[nH]c(N)nc54)O[C@@H]3CO)O2)c(=O)[nH]c1=O	315

The next compounds have a lower IC50 than those just listed; values first:

IC50 [nM]	SMILES
290	Cc1cn([C@H]2C[C@H](OP(=O)(O)OC[C@H]3O[C@@H](n4cc(C)c(=O)[nH]c4=O)C[C@@H]3OP(=O)(O)OC[C@H]3O[C@@H](n4cc(C)c(=O)[nH]c4=O)C[C@@H]3OP(=O)(O)OC[C@H]3O[C@@H](n4cnc5c(=O)[nH]c(N)nc54)C[C@@H]3OP(=O)(O)OC[C@H]3O[C@@H](n4cc(C)c(=O)[nH]c4=O)C[C@@H]3OP(=O)(O)OC[C@H]3O[C@@H](n4cnc5c(=O)[nH]c(N)nc54)C[C@@H]3OP(=O)(O)OC[C@H]3O[C@@H](n4cc(C)c(=O)[nH]c4=O)C[C@@H]3O)[C@@H](COP(=O)(O)O[C@H]3C[C@H](n4cc(C)c(=O)[nH]c4=O)O[C@@H]3COP(=O)(O)O[C@H]3C[C@H](n4cc(C)c(=O)[nH]c4=O)O[C@@H]3COP(=O)(O)O[C@H]3C[C@H](n4cnc5c(=O)[nH]c(N)nc54)O[C@@H]3COP(=O)(O)O[C@H]3C[C@H](n4cnc5c(=O)[nH]c(N)nc54)O[C@@H]3COP(=O)(O)OCCCCCCNC(=O)c3cc(Cl)c(C(=O)O)c(-c4c5cc(Cl)c(=O)cc-5oc5cc(O)c(Cl)cc45)c3Cl)O2)c(=O)[nH]c1=O
55	Cc1cn([C@H]2C[C@H](OP(=O)(O)OC[C@H]3O[C@@H](n4cc(C)c(=O)[nH]c4=O)C[C@@H]3OP(=O)(O)OC[C@H]3O[C@@H](n4cc(C)c(=O)[nH]c4=O)C[C@@H]3OP(=O)(O)OC[C@H]3O[C@@H](n4cnc5c(=O)[nH]c(N)nc54)C[C@@H]3OP(=O)(O)OC[C@H]3O[C@@H](n4cc(C)c(=O)[nH]c4=O)C[C@@H]3OP(=O)(O)OC[C@H]3O[C@@H](n4cnc5c(=O)[nH]c(N)nc54)C[C@@H]3OP(=O)(O)OC[C@H]3O[C@@H](n4cc(C)c(=O)[nH]c4=O)C[C@@H]3O)[C@@H](COP(=O)(O)O[C@H]3C[C@H](n4cc(C)c(=O)[nH]c4=O)O[C@@H]3COP(=O)(O)O[C@H]3C[C@H](n4cc(C)c(=O)[nH]c4=O)O[C@@H]3COP(=O)(O)O[C@H]3C[C@H](n4cnc5c(=O)[nH]c(N)nc54)O[C@@H]3COP(=O)(O)O[C@H]3C[C@H](n4cnc5c(=O)[nH]c(N)nc54)O[C@@H]3COP(=O)(O)OCCCCCCNC(=O)c3cc(Cl)c(C(=O)O)c(-c4c5cc(Cl)c(=O)c(Cl)c-5oc5c(Cl)c(O)c(Cl)cc45)c3Cl)O2)c(=O)[nH]c1=O
52	Cc1cn([C@H]2C[C@H](OP(=O)(O)OC[C@H]3O[C@@H](n4cc(C)c(=O)[nH]c4=O)C[C@@H]3OP(=O)(O)OC[C@H]3O[C@@H](n4cc(C)c(=O)[nH]c4=O)C[C@@H]3OP(=O)(O)OC[C@H]3O[C@@H](n4cnc5c(=O)[nH]c(N)nc54)C[C@@H]3OP(=O)(O)OC[C@H]3O[C@@H](n4cc(C)c(=O)[nH]c4=O)C[C@@H]3OP(=O)(O)OC[C@H]3O[C@@H](n4cnc5c(=O)[nH]c(N)nc54)C[C@@H]3OP(=O)(O)OC[C@H]3O[C@@H](n4cc(C)c(=O)[nH]c4=O)C[C@@H]3O)[C@@H](COP(=O)(O)O[C@H]3C[C@H](n4cc(C)c(=O)[nH]c4=O)O[C@@H]3COP(=O)(O)O[C@H]3C[C@H](n4cc(C)c(=O)[nH]c4=O)O[C@@H]3COP(=O)(O)O[C@H]3C[C@H](n4cnc5c(=O)[nH]c(N)nc54)O[C@@H]3COP(=O)(O)O[C@H]3C[C@H](n4cnc5c(=O)[nH]c(N)nc54)O[C@@H]3COP(=O)(O)OCCCCCCNC(=O)c3cc(Cl)c(-c4c5cc(Cl)c(O)c(Cl)c5nc5c(Cl)c(O)c(Cl)cc45)c(C(=O)O)c3Cl)O2)c(=O)[nH]c1=O
50	Cc1cn([C@H]2C[C@H](OP(=O)(O)OC[C@H]3O[C@@H](n4cc(C)c(=O)[nH]c4=O)C[C@@H]3OP(=O)(O)OC[C@H]3O[C@@H](n4cc(C)c(=O)[nH]c4=O)C[C@@H]3OP(=O)(O)OC[C@H]3O[C@@H](n4cnc5c(=O)[nH]c(N)nc54)C[C@@H]3OP(=O)(O)OC[C@H]3O[C@@H](n4cc(C)c(=O)[nH]c4=O)C[C@@H]3OP(=O)(O)OC[C@H]3O[C@@H](n4cnc5c(=O)[nH]c(N)nc54)C[C@@H]3OP(=O)(O)OC[C@H]3O[C@@H](n4cc(C)c(=O)[nH]c4=O)C[C@@H]3OP(=O)(O)OCCCCCCNC(=S)Nc3ccc(-c4c5cc(Br)c(=O)c(Br)c-5oc5c(Br)c(O)c(Br)cc45)c(C(=O)O)c3)[C@@H](COP(=O)(O)O[C@H]3C[C@H](n4cc(C)c(=O)[nH]c4=O)O[C@@H]3COP(=O)(O)O[C@H]3C[C@H](n4cc(C)c(=O)[nH]c4=O)O[C@@H]3COP(=O)(O)O[C@H]3C[C@H](n4cnc5c(=O)[nH]c(N)nc54)O[C@@H]3COP(=O)(O)O[C@H]3C[C@H](n4cnc5c(=O)[nH]c(N)nc54)O[C@@H]3CO)O2)c(=O)[nH]c1=O
